Reference: the NIST ThermoML archive (doi:10.1021/je300345m)
± gives the expanded uncertainty stated by the source.

How the values were obtained:
[1] = Liquid, Vibrating tube method
[2] = xn = mol fraction of the nth substance listed; conditions: Liquid, Vibrating tube method, x2 = 0

CN(CCO)CCO [N-methyldiethanolamine]
[1]
Conditions | mass density [kg/m3]
298.15 K, 100 kPa | 1036 ± 3.1
303.15 K, 100 kPa | 1032.4 ± 3.1
308.15 K, 100 kPa | 1028.6 ± 3.1
313.15 K, 100 kPa | 1024.8 ± 3.1
318.15 K, 100 kPa | 1021 ± 3.1
323.15 K, 100 kPa | 1017.2 ± 3.1
328.15 K, 100 kPa | 1013.3 ± 3.1
333.15 K, 100 kPa | 1009.4 ± 3.1
338.15 K, 100 kPa | 1005.6 ± 3.1
343.15 K, 100 kPa | 1001.7 ± 3.1
348.15 K, 100 kPa | 997.7 ± 3.1
353.15 K, 100 kPa | 993.8 ± 3.1
358.15 K, 100 kPa | 989.9 ± 3.1
363.15 K, 100 kPa | 985.9 ± 3.1
373.15 K, 700 kPa | 978.6 ± 3.1
383.15 K, 700 kPa | 970.3 ± 3.1
393.15 K, 700 kPa | 962.1 ± 3.1
403.15 K, 700 kPa | 953.9 ± 3.1
413.15 K, 700 kPa | 945.6 ± 3.1
423.15 K, 700 kPa | 937 ± 3.1

O [water] + CN(CCO)CCO
[2]
Conditions | mass density [kg/m3]
323.15 K, 100 kPa | 988 ± 3
328.15 K, 100 kPa | 985.7 ± 3
333.15 K, 100 kPa | 983.2 ± 3
338.15 K, 100 kPa | 980.5 ± 3
343.15 K, 100 kPa | 977.7 ± 3
348.15 K, 100 kPa | 974.8 ± 3
353.15 K, 100 kPa | 971.8 ± 3
358.15 K, 100 kPa | 968.6 ± 3
363.15 K, 100 kPa | 965.3 ± 3
373.15 K, 700 kPa | 958.6 ± 3
383.15 K, 700 kPa | 951.2 ± 3
393.15 K, 700 kPa | 943.4 ± 3
403.15 K, 700 kPa | 935.1 ± 3
413.15 K, 700 kPa | 926.3 ± 3
423.15 K, 700 kPa | 917.1 ± 3

O [water] + OCCNCCO
[2]
Conditions | mass density [kg/m3]
323.15 K, 100 kPa | 988 ± 3.5
328.15 K, 100 kPa | 985.7 ± 3.5
333.15 K, 100 kPa | 983.2 ± 3.5
338.15 K, 100 kPa | 980.5 ± 3.5
343.15 K, 100 kPa | 977.7 ± 3.5
348.15 K, 100 kPa | 974.8 ± 3.5
353.15 K, 100 kPa | 971.8 ± 3.5
358.15 K, 100 kPa | 968.6 ± 3.5
363.15 K, 100 kPa | 965.3 ± 3.5
373.15 K, 700 kPa | 958.6 ± 3.5
383.15 K, 700 kPa | 951.2 ± 3.5
393.15 K, 700 kPa | 943.4 ± 3.5
403.15 K, 700 kPa | 935.1 ± 3.5
413.15 K, 700 kPa | 926.3 ± 3.5
423.15 K, 700 kPa | 917.1 ± 3.5

OCCNCCO [diethanolamine]
[1]
Conditions | mass density [kg/m3]
298.15 K, 100 kPa | 1093.6 ± 3.6
303.15 K, 100 kPa | 1090.4 ± 3.6
308.15 K, 100 kPa | 1087.1 ± 3.6
313.15 K, 100 kPa | 1083.8 ± 3.6
318.15 K, 100 kPa | 1080.6 ± 3.6
323.15 K, 100 kPa | 1077.4 ± 3.6
328.15 K, 100 kPa | 1074.1 ± 3.6
333.15 K, 100 kPa | 1070.8 ± 3.6
338.15 K, 100 kPa | 1067.4 ± 3.6
343.15 K, 100 kPa | 1064 ± 3.6
348.15 K, 100 kPa | 1060.6 ± 3.6
353.15 K, 100 kPa | 1057.2 ± 3.6
358.15 K, 100 kPa | 1053.7 ± 3.6
363.15 K, 100 kPa | 1050.1 ± 3.6
373.15 K, 700 kPa | 1043.3 ± 3.6
383.15 K, 700 kPa | 1035.5 ± 3.6
393.15 K, 700 kPa | 1028.1 ± 3.6
403.15 K, 700 kPa | 1020.5 ± 3.6
413.15 K, 700 kPa | 1012.9 ± 3.6
423.15 K, 700 kPa | 1004.8 ± 3.6
